Where two headings read alike, the source gives them in different places. One block for each compound: values may come before it. Where no end group is shown, it is not given here.
Assays:
[1] = degradation in plasma by RP-HPLC; type: in vitro ADME; settings: incubation in plasma for 60 minutes; further: key: +: degradation was not observed; -: was complete after this time
Experimental: In this assay, the analog is added to plasma for various times and recovered similarly to the method described above for radiolabel sequencing analysis. Specifically, the analog at a concentration of 100 nM in RIA buffer is spiked into 1 mL plasma to a final concentration of 1 nM and after incubation in 37° C. circulating water bath for various preset times, the reaction is stopped by bringing the plasma to 0.1% (w/v) in bacitracin.
The peptides are then purified by Sep-Pak extraction as described above. The eluates are concentrated to about 1 mL on a Speed-vac, diluted with 1 mL distilled water, frozen at 80° C. and lyophilized overnight. The powder is resuspended in 0.5 mL Buffer C (0.1% TFA in water) per mL starting plasma and 0.25 mL are injected on a Hewlett-Packard 109OL liquid chromatograph using an Alltech C18 column (0.45×25 cm; 10 μm particle size) with a Brownlee 2 cm C18 guard column. The extraction is monitored at OD214 throughout the run and the solvent flow rate was 1 mL/minute. A gradient between Buffer C and Buffer D (0.1% TFA in acetonitrile) is set up over a 40 minute run time. The gradient starts at 35% D is held for the first 2 minutes after injection and then increased to 42% D over 24 minutes. The gradient is then increased to 60% D over the next two minutes, held at this level for 2 minutes and returned to 35% D over the next 2 minutes. The % D remains at 35% for the remaining 8 minutes of the run. Fractions are collected at 0.5 minute intervals for the first 30 minutes of each run and dried in a Speed-vac.

[2] = system: RIN 1046-38 cells
Experimental: An additional test for potency of the compounds of the invention measures their ability to stimulate cAMP production in RIN 1046-38 cells. This assay can be conducted as follows:
On day 1, 5×10^5 RIN 1046-38 cells (Drucker, D. J., et al., Proc Natl Acad Sci USA (1987) 84:3434-3438) are seeded into individual wells of 6-well dishes with 2.5 mL M199 culture medium. On day 4, cells are re-fed with fresh medium and on day 5 the assay is performed. […] Assays are only performed on cell passage ≤24.
At time -60 min, monolayers are washed twice with 2.5 mL PBS, and medium is changed to 1.0 mL of DMEM medium plus 4.5 g/l glucose and 0.1% BSA (assay medium). At 0 time, medium is aspirated and fresh assay medium, 1.0 mL, containing test compound is added. Test compound is added in 50 ul volume of PBS plus 0.1% BSA; controls are added in vehicle alone. Incubation is continued for 0 to 60 min.
At termination, conditioned medium and monolayer are harvested to measure both extra- and intracellular cAMP content. For extracellular measurement, medium is removed and centrifuged to remove any cellular debris. For intracellular determination, after medium removal, 1.0 mL of ice cold 95% ethanol is added to monolayer. Cells are collected by scraping, lysed by two cycles of quick freeze/thawing using liquid N2, and cell debris then removed by centrifugation. Aliquots (1/40th well content) of conditioned medium and ethanol cell extract are measured in duplicate for cAMP levels using an RIA kit by the acetylated protocol.
Insulin secretion can also be measured by the method described by Holst, J. J., et al. FEBS Letters (1987) 211:169-174 (supra). Also useful as an assay for insulinotropic effect is the measurement of stimulation of adenylate cyclase in the RIN 1046-38 cell line. Drucker, D. J. et al., Proc Natl Acad Sci USA (1987) 84:3434-3438 (supra).

[3] = type: in vitro ADME
Experimental: Polyclonal antisera were raised in New Zealand White rabbits against a synthetic peptide fragment corresponding to residues 24 to 37 of GLP-1(7-37) using the method of Mosjoy, S. et al., J Biol Chem (1986) 261:11880-11889. Initial immunizations were into the inguinal lymph nodes and used Freund's complete adjuvant. Two subcutaneous boosts were performed at 1 week intervals after the initial immunization and used Freund's incomplete adjuvant. For a single immunization or boost 100 μg peptide and 100 μg methylated BSA dissolved in 0.3 mL phosphate-buffered saline (PBS) were emulsified with 0.9 mL adjuvant. Bleeds (50 mL) began at week 6 after the initial immunization and continued at 1 month intervals thereafter. Repeat boosts were performed as above when titers dropped noticeably from the level of the previous bleed.

- Resistance to Degradation [1]: -
Compound: CC[C@H](C)[C@H](NC(=O)[C@H](Cc1ccccc1)NC(=O)[C@H](CCC(=O)O)NC(=O)[C@H](CCCCN)NC(=O)[C@H](C)NC(=O)[C@H](C)NC(=O)[C@H](CCC(N)=O)NC(=O)CNC(=O)[C@H](CCC(=O)O)NC(=O)[C@H](CC(C)C)NC(=O)[C@H](Cc1ccc(O)cc1)NC(=O)[C@H](CO)NC(=O)[C@H](CO)NC(=O)[C@@H](NC(=O)[C@H](CC(=O)O)NC(=O)[C@H](CO)NC(=O)[C@@H](NC(=O)[C@H](Cc1ccccc1)NC(=O)[C@@H](NC(=O)CNC(=O)[C@@H](CC(=O)O)NC(=O)[C@H](C)NC(=O)[C@@H](N)Cc1c[nH]cn1)[C@@H](C)O)[C@@H](C)O)C(C)C)C(=O)N[C@@H](C)C(=O)N[C@@H](Cc1c[nH]c2ccccc12)C(=O)N[C@@H](CC(C)C)C(=O)N[C@H](C(=O)N[C@@H](CCCCN)C(=O)NCC(=O)N[C@@H](CCCNC(=N)N)C(=O)NCC(=O)O)C(C)C [(D^.dagger.)^9 -GLP-1(7-37)]
- ED50 nM Duplicate Assays (first value) [2]: 0.90 nM
- ED50 nM Duplicate Assays (second value) [2]: 0.90 nM

Compound: GLP-1(7-37)
- ability of recovered fragment to inhibit binding of radiolabeled GLP-1(7-37) to carboxy terminal-specific antibody [3]: no diminution
- ED50 nM Duplicate Assays (first value) ([2]; cAMP stimulation in RIN 1046-38 cells, first of duplicate assays): 0.16 nM
- ED50 nM Duplicate Assays (second value) ([2]; cAMP stimulation in RIN 1046-38 cells, second of duplicate assays): 0.25 nM

- Resistance to Degradation [1]: +
Compound: CC[C@H](C)[C@H](NC(=O)[C@H](Cc1ccccc1)NC(=O)[C@H](CCC(=O)O)NC(=O)[C@H](CCCCN)NC(=O)[C@H](C)NC(=O)[C@H](C)NC(=O)[C@H](CCC(N)=O)NC(=O)CNC(=O)[C@H](CCC(=O)O)NC(=O)[C@H](CC(C)C)NC(=O)[C@H](Cc1ccc(O)cc1)NC(=O)[C@H](CO)NC(=O)[C@H](CO)NC(=O)[C@@H](NC(=O)[C@H](CC(=O)O)NC(=O)[C@H](CO)NC(=O)[C@@H](NC(=O)[C@H](Cc1ccccc1)NC(=O)[C@@H](NC(=O)CNC(=O)[C@H](CCC(=O)O)NC(=O)[C@H](C)NC(=O)[C@H](CCCCN)NC(C)=O)[C@@H](C)O)[C@@H](C)O)C(C)C)C(=O)N[C@@H](C)C(=O)N[C@@H](Cc1c[nH]c2ccccc12)C(=O)N[C@@H](CC(C)C)C(=O)N[C@H](C(=O)N[C@@H](CCCCN)C(=O)NCC(=O)N[C@@H](CCCNC(=N)N)C(=O)NCC(=O)O)C(C)C [(N-acetyl-K)^7 GLP-1 (7-37)]

- Resistance to Degradation [1]: +
Compound: CC[C@H](C)[C@H](NC(=O)[C@H](Cc1ccccc1)NC(=O)[C@H](CCC(=O)O)NC(=O)[C@H](CCCCN)NC(=O)[C@H](C)NC(=O)[C@H](C)NC(=O)[C@H](CCC(N)=O)NC(=O)CNC(=O)[C@H](CCC(=O)O)NC(=O)[C@H](CC(C)C)NC(=O)[C@H](Cc1ccc(O)cc1)NC(=O)[C@H](CO)NC(=O)[C@H](CO)NC(=O)[C@@H](NC(=O)[C@H](CC(=O)O)NC(=O)[C@H](CO)NC(=O)[C@@H](NC(=O)[C@H](Cc1ccccc1)NC(=O)[C@@H](NC(=O)CNC(=O)[C@H](CCC(=O)O)NC(=O)[C@H](C)NC(=O)[C@H](Cc1c[nH]cn1)NC(C)C)[C@@H](C)O)[C@@H](C)O)C(C)C)C(=O)N[C@@H](C)C(=O)N[C@@H](Cc1c[nH]c2ccccc12)C(=O)N[C@@H](CC(C)C)C(=O)N[C@H](C(=O)N[C@@H](CCCCN)C(=O)NCC(=O)N[C@@H](CCCNC(=N)N)C(=O)NCC(=O)O)C(C)C [(N-isopropyl-H)^7 GLP-1(7-37), (N-isopropyl-H)^7 -GLP-1(7-37)]

- Resistance to Degradation [1]: -
Compound: HSQGTFTSDYSKYLDGQAAKEFIAWLVKGRG [(S)^8 (Q)^9 (Y)^16 (K)^18 (D)^21 -GLP-1(7-37)]
